Values joined by “and” are separate entries in the source; they are usually repeats but may differ in a detail not shown here. Identical values can stand only once. Like-named read-outs stand apart in the source and are kept apart here.
Tests used:
CYP2B6 mRNA [1] = assay: CYP2B6 mRNA induction in 5F HepaRG control cells (real-time PCR); type: in vitro ADME, human; conditions: for E max, induction of CYP2B6 mRNA, 5F / EC50 / EC50 at 48 h: 5F cells; for EC50 at 48 h: human
Description: (§1) 5F, CAR‐KO, and PXR‐KO HepaRG cells were thawed in recovery medium and plated into 96‐well collagen‐1‐coated plates at a volume of 200 μL/well. The cells were incubated at 37°C in a humidified incubator with 5% CO2 for 48 h. The recovery medium was replaced with maintenance medium and procedure repeated every Monday, Wednesday, and Friday for 18 days. On day 18, the maintenance medium was replaced with pre‐incubation medium for 72 h. On day 21, the cells were incubated with test compounds in serum‐free induction medium for 48 h. Test compounds were freshly dissolved in DMSO and then serum‐free induction medium to achieve a final DMSO concentration of 0.1% every 24 h. For enzyme induction assays, cells were thawed into recovery medium and plated into 24‐well plates at a volume of 1 mL/well. Culture conditions were as described above.
(§2) mRNA was extracted from the cell monolayers using the SV96 total RNA isolation system according to the manufacturer's instructions. Reverse transcription of mRNA to cDNA was completed using Taqman reverse transcription (RT) assay. […] An Agilent Mx3005P thermocycler was used to run a thermal cycle of: 10 min at 25°C, 30 min at 37°C, 5 min at 95°C, and a hold phase at 4°C.
(§3) An Agilent Mx3005P thermocycler was used to determine the gene expression of selected genes. Real‐time PCR solutions were prepared as described by the manufacturer. Each reaction contained 12.5 μL volume. […] PCR conditions were 15 min at 95°C (to activate polymerase, denature cDNA, and initiate PCR) followed by 40 cycles of 15 sec at 94°C (denaturation), and 60 sec at 60°C (annealing/extension of the product). Fluorescence was measured at the end of each cycle.
(§4) Gene expression data were compared to an average of GAPDH and normalized to the control sample using the comparative threshold cycle (C(t)) method (Ct = 2^−∆∆C(t)). […] Where possible data were fitted to a sigmoidal E max model (WinNonLin Phoenix, Pharsight, 6.3.0.395). All human hepatocyte data are the average of duplicate experiments and three compound concentrations. HepaRG WT are the average of triplicate experiments completed in duplicate. HepaRG 5F and HepaRG PXR‐KO data are the average of duplicate experiments and duplicate replicates of each compound concentration (six concentrations).

CYP3A4 mRNA [2] = assay: CYP3A4 mRNA induction in HepaRG wild-type cells (real-time PCR); conditions: for E max, induction of CYP3A4 mRNA, HepaRG: E max ± SD; for EC50: human
Description: (§5) HepaRG cells were thawed in thawing and maintenance medium and plated into 96‐well collagen‐1‐coated plates at a volume of 200 μL/well. The cells were incubated at 37°C in a humidified incubator with 5% CO2 for 72 h. Test compounds were freshly dissolved in DMSO and then serum‐free induction medium to achieve a final DMSO concentration of 0.1% every 24 h.
as §2, §3, §4

CYP2B6 mRNA [3] = assay: CYP2B6 mRNA induction in HepaRG wild-type cells (real-time PCR); type: in vitro ADME, human; conditions: for E max, induction of CYP2B6 mRNA, HepaRG: E max ± SD; for EC50: human, EC50 ± SD
Description: as §5, §2, §3, §4

CYP3A4 mRNA [4] = assay: CYP3A4 mRNA induction in PXR-KO HepaRG cells (real-time PCR)
Description: as §1, §2, §3, §4

CYP3A4 mRNA [5] = assay: CYP3A4 mRNA induction in 5F HepaRG control cells (real-time PCR); conditions: for EC50 at 48 h: human, 5F HepaRG control cells; for EC50: read-out: EC50, induction of CYP3A4 mRNA, 5F
Description: as §1, §2, §3, §4

CYP2B6 mRNA [6] = assay: CYP2B6 mRNA induction in PXR-KO HepaRG cells (real-time PCR); type: in vitro ADME, human; conditions: for EC50 for CYP2B6 in PXR-KO cells in comparison to other cell types (in words): PXR-KO vs 5F cells / other cell types; for E max for CYP2B6 in PXR-KO cells in comparison to other cell types (in words): PXR-KO vs 5F, HepaRG WT cells and PHHs; for EC50 at 48 h: human
Description: as §1, §2, §3, §4

CYP3A4 mRNA [7] = assay: CYP3A4 mRNA induction in cryopreserved primary human hepatocytes (real-time PCR); conditions: for EC50 at 48 h: human, cryopreserved primary human hepatocytes
Description: (§6) The cells were incubated at 37°C in a humidified incubator with 5% CO2. Plating medium was replaced with maintenance medium following 4 h incubation and then maintained overnight before 48 h treatment with test compound. Test compounds were freshly dissolved in dimethyl sulfoxide (DMSO) and then culture medium to achieve a final DMSO concentration of 0.1%. A vehicle control of medium with 0.1% DMSO was included in all studies.
as §2, §3
(§7) Gene expression data were compared to an average of GAPDH and normalized to the control sample using the comparative threshold cycle (C(t)) method (Ct = 2^−∆∆C(t)). […] Where possible data were fitted to a sigmoidal E max model (WinNonLin Phoenix, Pharsight, 6.3.0.395). All human hepatocyte data are the average of duplicate experiments and three compound concentrations.

CYP2B6 mRNA [8] = assay: CYP2B6 mRNA induction in cryopreserved primary human hepatocytes (real-time PCR); conditions: 48 h; for E max, induction of CYP2B6 mRNA, primary human hepatocyte donor D3: donor D3 (Hu8132)
Description: (§8) Cryopreserved male human hepatocytes were thawed in CHRM and plated into a 96‐well collagen‐1‐coated plate at a density of 7.5 × 10^4 viable cells in 200 μL of CHPM. Trypan blue exclusion was used to determine cell viability with a cut‐off of 85% viability. The cells were incubated at 37°C in a humidified incubator with 5% CO2. Plating medium was replaced with maintenance medium following 4 h incubation and then maintained overnight before 48 h treatment with test compound. Test compounds were freshly dissolved in dimethyl sulfoxide (DMSO) and then culture medium to achieve a final DMSO concentration of 0.1%. A vehicle control of medium with 0.1% DMSO was included in all studies.
as §2, §3, §7

CYP2B6 mRNA [9] = assay: in vitro; conditions: human
Description: as §8, §2, §3, §7

CYP2B6 = CYP2B6 enzyme activity induction (bupropion, LC-MS/MS) in PXR-KO and 5F cells; type: in vitro ADME, human; conditions: 1.5 μmol/L CITCO, 258 μmol/L phenobarbital; bupropion 100 μmol/L, 2 h; PXR-KO vs 5F cells (Fig. 3)
Description: Culture conditions were as described above.
P450 enzyme activity was assessed by incubating whole‐cell monolayers for 2 h at 37°C using 100 μmol/L bupropion (CYP2B6) in unsupplemented Williams E media with a final concentration of 0.1% DMSO. Reactions were quenched by removing supernatants and diluting 1:2 into ice‐cold acetonitrile. Samples were stored at −20°C until LC‐MS/MS analysis was completed.
LC‐MS/MS analysis utilized an API‐4000 Q Trap mass spectrometer with a Turbo V atmospheric pressure electrospray ionization source (AB SCIEX, Framingham, MA). Samples (40 μL) were injected onto a Fortis C18 column (3 × 50 mm, 5 μm) and eluted by a mobile phase gradient specific for each test article (mobile phase A: 0.1% formic acid in water; mobile phase B: 0.1% formic acid in acetonitrile). Flow rate was 0.5 mL/min. MS conditions: positive or negative ionization mode (4.5 kV spray voltage); source temperature of 450°C with multiple reaction monitoring specific for each analyte and internal standard parent–product ion pairs. Peak areas of analyte and internal standard and resulting ratios were quantified using Analyst 1.5.2 (AB SCIEX, Framingham, MA).

CYP3A4 mRNA [10] = test system: CYP3A4 mRNA
Description: as §1, §2, §3, §4

CYP3A4 mRNA [11] = conditions: human
Description: as §5, §2, §3, §4

CYP3A4 mRNA [12] = conditions: human; remark: listed apart in the source
Description: as §1, §2, §3, §4

CYP3A4 mRNA [13] = assay: in vitro; conditions: human, EC50, induction of CYP3A4 mRNA
Description: as §6, §2, §3, §7

CYP3A4 mRNA [14] = test system: CYP3A4 mRNA; remark: listed apart in the source
Description: as §6, §2, §3, §7

CYP3A4 mRNA [15] = assay: in vitro; conditions: human, EC50, induction of CYP3A4 mRNA, 5F
Description: as §1, §2, §3, §4

[16] = 48 h, value of each individual experiment (two per cell)
[17] = 5F HepaRG control cells, 48 h, value of each individual experiment (two per cell), read-out: EC50, induction of CYP2B6 mRNA, 5F
[18] = PXR-KO vs 5F, HepaRG WT cells and PHHs
[19] = 5F cells, 48 h, value of each individual experiment (two per cell)
[20] = EC50, induction of CYP3A4 mRNA, 5F, 5F cells, 48 h, value of each individual experiment (two per cell)
[21] = donor D1 (Hu1455), NE = no effect observed, relative gene expression fold change <2
[22] = PXR-KO HepaRG cells, compared with 5F cells
[23] = cryopreserved primary human hepatocytes, donor D1 (Hu1455)
[24] = cryopreserved primary human hepatocytes, donor D3 (Hu8132)

Row | SMILES | E max, induction of CYP2B6 mRNA, 5F (CYP2B6 mRNA [1]; [16]) | EC50 (CYP2B6 mRNA [1]; [16]) | EC50 at 48 h (CYP2B6 mRNA [1]; [17]) [µM] | E max, induction of CYP3A4 mRNA, HepaRG (CYP3A4 mRNA [2]) | EC50 (CYP3A4 mRNA [2]) [µM] | E max, induction of CYP2B6 mRNA, HepaRG (CYP2B6 mRNA [3]) | EC50 (CYP2B6 mRNA [3]) [µM] | E max, induction of CYP3A4 mRNA, 5F (CYP3A4 mRNA [5]; [19]) | EC50 at 48 h (CYP3A4 mRNA [5]; [20]) [µM] | EC50 for CYP2B6 in PXR-KO cells in comparison to other cell types (in words) (CYP2B6 mRNA [6]) | E max for CYP2B6 in PXR-KO cells in comparison to other cell types (in words) (CYP2B6 mRNA [6]) | E max, induction of CYP2B6 mRNA, primary human hepatocyte donor D1 (CYP2B6 mRNA [8]; [21]) | E max, induction of CYP2B6 mRNA, primary human hepatocyte donor D3 (CYP2B6 mRNA [8]) | EC50 (CYP3A4 mRNA [5]; [19]) [µM] | EC50 at 48 h (CYP2B6 mRNA [9]; [23]) [µM] | EC50 at 48 h (CYP2B6 mRNA [9]; [24]) [µM] | EC50 at 48 h (CYP2B6 mRNA [6]; PXR-KO HepaRG cells, 48 h) [µM] | CYP2B6-induced activity response (CYP2B6) | CYP3A4 induction response in PXR-KO cells (in words) (CYP3A4 mRNA [10]) | other results
1 | NC(=O)N1c2ccccc2C=Cc2ccccc21 [Carbamazepine, carbamazepine] | 3.1 and 7.4 | 5.4 µM | 8.4 | 33.5 ± 12.6 | 24 ± 12.2 | 10.7 ± 4.3 | 12 ± 7.3 | 29.3 and 21.6 | 37.4 | increased | lower |  |  |  |  |  |  |  |  | E max for CYP3A4 in PXR-KO cells in comparison to other cell types (in words) (CYP3A4 mRNA [4]; [18]): ~four‐fold lower; EC50 for CYP3A4 in PXR-KO cells in comparison to other cell types (in words) (CYP3A4 mRNA [4]; [18]): similar; EC50 at 48 h (CYP3A4 mRNA [4]; human, PXR-KO HepaRG cells): 49 µM; EC50 at 48 h (CYP3A4 mRNA [5]; EC50 of CYP3A4 induction in 5F cells, single value given in text, data the average of two experiments): 38 µM
2 | Clc1ccc(-c2nc3sccn3c2C=NOCc2ccc(Cl)c(Cl)c2)cc1 [CITCO, 6‐(4‐chlorophenyl)imidazo[2,1‐b][1,3]thiazole‐5‐carbaldehyde O‐(3,4‐dichlorobenzyl)oxime] | 17.0 and 22.5 | 1 µM |  | 21.1 ± 4.6 | 1.5 ± 0.1 | 14.2 ± 7.4 | 0.03 ± 0.01 | 6.4 and 7.1 | 1.9 |  | similar | 6.0 | 5.5 | 2 | 0.2 | 0.3 | 0.3 | greater in the PXR‐KO cells |  | E max, induction of CYP3A4 mRNA, primary human hepatocyte donor D1 (CYP3A4 mRNA [7]; donor D1 (Hu1455), 48 h): 3.5; E max, induction of CYP3A4 mRNA, primary human hepatocyte donor D3 (CYP3A4 mRNA [7]; donor D3 (Hu8132), 48 h): 2.3; EC50 at 48 h (CYP3A4 mRNA [7]; donor D1 (Hu1455)): 0.3 µM; EC50 at 48 h (CYP3A4 mRNA [7]; donor D3 (Hu8132)): 0.4 µM; CYP2B6 induction response in 5F cells (in words) (CYP2B6 mRNA [1]): responsive; EC50 at 48 h (CYP2B6 mRNA [1]; 5F HepaRG control cells, single value given in text, data the average of two experiments, read-out: EC50 of CYP2B6 induction in 5F cells): 0.5 µM; CYP3A4 induction response in PXR-KO cells (in words) (CYP3A4 mRNA [4]; [22]): maintained
3 | O=C1NC(=O)C(c2ccccc2)(c2ccccc2)N1 [Phenytoin, phenytoin] | 7.3 and 10.6 | 7.8 µM | 5.1 | 89.6 ± 8.1 | 42.6 ± 6.6 | 14.2 ± 3.7 | 2.7 ± 1.7 | 16.0 and 20.8 | 18.1 | increased | lower |  |  | 19.9 |  |  |  |  | much reduced | E max for CYP3A4 in PXR-KO cells in comparison to other cell types (in words) (CYP3A4 mRNA [10]): lower; EC50 for CYP3A4 in PXR-KO cells in comparison to other cell types (in words) (CYP3A4 mRNA [10]): increased
4 | CO[C@H]1/C=C/O[C@@]2(C)Oc3c(C)c(O)c4c(O)c(c(/C=N/N5CCN(C)CC5)c(O)c4c3C2=O)NC(=O)/C(C)=C\C=C\[C@H](C)[C@H](O)[C@@H](C)[C@@H](O)[C@@H](C)[C@H](OC(C)=O)[C@@H]1C [Rifampicin, rifampicin] | 18.9 and 12.9 | 1.7 µM and 0.7 µM |  |  |  | 5.2 ± 2.9 | 0.3 ± 0.2 |  |  |  |  | 3.9 | 16.3 |  | 0.1 | 5.5 |  |  |  | E max, induction of CYP2B6 mRNA, primary human hepatocyte donor D2 (CYP2B6 mRNA [8]; donor D2 (Hu1601), NE = no effect observed, relative gene expression fold change <2): 4.3; EC50 at 48 h (CYP2B6 mRNA [9]; cryopreserved primary human hepatocytes, donor D2 (Hu1601)): 5.2 µM; CYP2B6 induction response in PXR-KO cells (in words) (CYP2B6 mRNA [6]; [22]): No response
5 | CCC1(c2ccccc2)C(=O)NC(=O)NC1=O [Phenobarbital, phenobarbital] | 5.9 and 5.5 | 195 µM |  |  |  | 68.9 ± 47.3 | 170 ± 6.8 |  |  | in agreement between the cell lines |  | 20.2 | 26.3 |  |  |  | 98 | greater in the PXR‐KO cells | much reduced | EC50 at 48 h (CYP2B6 mRNA [1]; 48 h, value of each individual experiment (two per cell), read-out: EC50, induction of CYP2B6 mRNA, 5F): 145 µM; E max, induction of CYP3A4 mRNA, HepaRG (CYP3A4 mRNA [11]): 110.0 ± 12.8; E max, induction of CYP3A4 mRNA, 5F (CYP3A4 mRNA [12]): 17.3, 28.1; EC50 (CYP3A4 mRNA [12]): 166 µM; EC50 (CYP3A4 mRNA [13]; primary human hepatocyte donor D1): 250 µM; EC50 (CYP3A4 mRNA [13]; primary human hepatocyte donor D2): 366 µM; EC50 (CYP3A4 mRNA [13]; primary human hepatocyte donor D3): 177 µM; EC50 (CYP2B6 mRNA [8]; read-out: EC50, induction of CYP2B6 mRNA, primary human hepatocyte donor D1, donor D1 (Hu1455)): 98.9 µM; E max, induction of CYP3A4 mRNA, primary human hepatocyte donor D2 (CYP3A4 mRNA [14]; hepatocytes): 13.3; E max, induction of CYP3A4 mRNA, primary human hepatocyte donor D3 (CYP3A4 mRNA [14]; hepatocytes): 81.8; EC50 (CYP3A4 mRNA [14]; male, human): 251 µM; EC50 (CYP3A4 mRNA [15]): 108 µM; EC50 at 48 h (CYP2B6 mRNA [9]; male): 186 µM; E max of CYP2B6 induction in PXR-KO cells (CYP2B6 mRNA [6]; PXR-KO HepaRG cells, 48 h): 11.8; E max of CYP3A4 induction in PXR-KO cells (CYP3A4 mRNA [10]; human): 3.3

From paper PMC5045942, “Evaluation of a novel PXR‐knockout in HepaRG™ cells” (Pharmacology Research & Perspectives, 2016)
